Measurements as given in the supplement of paper PMC11061612.

Assays:
Experiment in all cases: combination Emax (second highest fraction inhibited in the dose matrix, 72 h); higher = more inhibition; extreme values may be limits of the assay
[1] = system: Calu-3 (Lung Adenocarcinoma)
In short: (§1)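 Cell lines grown in DMEM/F12 or RPMI with 10% FBS were plated in 1536-well plates and held 24 hours at 37°C, 5% CO2 before 72 hours of exposure to two-drug dose matrices, with DMSO typically at 0.2%. CellTiter-Glo 2.0 luminescence gave viability, which was converted to inhibition. Vehicle wells were set to 0 and blank wells to 1. Combination Emax is the second-highest inhibition in the matrix, and Bliss excess is the observed combination effect minus the expected EA + EB − EA·EB, where EA and EB are the single-agent effects.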

[2] = system: CCRF-CEM (T-Lymphoblastic Leukemia)
In short: as §1

[3] = system: TCCSUP (Bladder Carcinoma)
In short: as §1

[4] = system: TE-15 (Esophageal Squamous Cell Carcinoma)
In short: as §1

KELLY (Neuroblastoma) = system: KELLY (Neuroblastoma)
In short: as §1

[5] = system: LNCaP-Clone-FGC (Prostate Carcinoma)
In short: as §1

[6] = system: HuP-T4 (Pancreatic Carcinoma)
In short: as §1

[7] = system: ME-1 (Acute Myeloid Leukemia)
In short: as §1

HOS (Osteosarcoma) = system: HOS (Osteosarcoma)
In short: as §1

[8] = system: RC-K8 (B-Cell Non-Hodgkin's Lymphoma)
In short: as §1

[9] = system: DEL (T-Cell Non-Hodgkin's Lymphoma)
In short: as §1

[10] = system: KYSE-520 (Esophageal Squamous Cell Carcinoma)
In short: as §1

[11] = system: LU-135 (Small Cell Lung Carcinoma)
In short: as §1

[12] = system: Daoy (Other Solid Carcinomas)
In short: as §1

[13] = system: OVCA420 (Ovarian Carcinoma)
In short: as §1

ES4 (Ewing's Sarcoma) = system: ES4 (Ewing's Sarcoma)
In short: as §1

[14] = system: TE-9 (Esophageal Squamous Cell Carcinoma)
In short: as §1

[15] = system: NCI-H2085 (Non-Small Cell Lung Carcinoma)
In short: as §1

[16] = system: MFE-296 (Endometrial Carcinoma)
In short: as §1

[17] = system: CaR-1 (Colorectal Carcinoma)
In short: as §1

Row | SMILES | combination Emax [1] | combination Emax [2] | combination Emax [3] | combination Emax [4] | combination Emax (KELLY (Neuroblastoma)) | combination Emax [5] | combination Emax [6] | combination Emax [7] | combination Emax (HOS (Osteosarcoma)) | combination Emax [8] | combination Emax [9] | combination Emax [10] | combination Emax [11] | combination Emax [12] | combination Emax [13] | combination Emax (ES4 (Ewing's Sarcoma)) | combination Emax [14] | combination Emax [15] | combination Emax [16] | combination Emax [17]
1 | CC1(C)CCC(CN2CCN(c3ccc(C(=O)NS(=O)(=O)c4ccc(NCC5CCOCC5)c([N+](=O)[O-])c4)c(Oc4cnc5[nH]ccc5c4)c3)CC2)=C(c2ccc(Cl)cc2)C1 [Venetoclax] + CN(C)CCCOc1ccc(-c2ccc3ncc4c(c3c2)n(C2CCOCC2)c(=O)n4C)cn1 [AZD0156] (first compound max 1 µM, 7x7, partner max 1 µM) | 0.121 | 0.931 | 0.189 | 0.451 | 0.976 | 0.35 | 0.144 | 1 | 0.152 | 0.316 | 0.192 | 0.181 | 0.274 | 0.168 | 0.178 | 0.173 | 0.141 | 0.186 | 0.144 | 0.145
2 | COc1nnc2ccc(N3CCC(c4ccc(OCCN5CCN(C)C(=O)[C@H]5C)cc4)CC3)nn12 [AZD5153] + C=CCn1c(=O)c2cnc(Nc3ccc(N4CCN(C)CC4)cc3)nc2n1-c1cccc(C(C)(C)O)n1 [AZD1775] (first compound max 1 µM, partner max 1 µM) | 0.632 | 1 | 0.578 | 0.756 | 1 | 0.758 | 0.549 | 0.572 | 0.501 | 0.787 | 1 | 0.656 | 1 | 0.908 | 0.789 | 0.758 | 0.275 | 0.505 | 0.581 | 0.451
3 | CC1(C)CCC(CN2CCN(c3ccc(C(=O)NS(=O)(=O)c4ccc(NCC5CCOCC5)c([N+](=O)[O-])c4)c(Oc4cnc5[nH]ccc5c4)c3)CC2)=C(c2ccc(Cl)cc2)C1 [Venetoclax] + COc1cc(Nc2ncc3c(n2)-c2ccc(Cl)cc2C(c2c(F)cccc2OC)=NC3)ccc1C(=O)O [Alisertib] (first compound max 1 µM, 7x7, partner max 10 µM) | 0.171 | 0.992 | 0.475 | 0.686 | 0.998 | 0.298 | 0.355 | 1 | 0.248 | 0.585 | 1 | 0.493 | 0.797 | 0.932 | 0.326 | 0.233 | 0.369 | 0.597 | 0.225 | 0.401
4 | CC1(C)CCC(CN2CCN(c3ccc(C(=O)NS(=O)(=O)c4ccc(NCC5CCOCC5)c([N+](=O)[O-])c4)c(Oc4cnc5[nH]ccc5c4)c3)CC2)=C(c2ccc(Cl)cc2)C1 [Venetoclax] + CCN(CCO)CCCOc1ccc2c(Nc3cc(CC(=O)Nc4cccc(F)c4)[nH]n3)ncnc2c1 [AZD2811] (first compound max 1 µM, 7x7, partner max 1 µM) | 0.175 | 1 | 0.311 | 0.441 | 0.985 | 0.272 | 0.263 | 1 | 0.214 | 0.423 | 0.754 | 0.304 | 0.899 | 0.439 | 0.188 | 0.164 | 0.154 | 0.46 | 0.124 | 0.282
5 | C[C@@H](c1ccc2nccn2c1)n1nnc2ncc(-c3cnn(C)c3)nc21 [Savolitinib] + Cc1c2c(nn1C)CSCc1cc(n(C)n1)CSc1cc(c3ccccc3c1)OCCCc1c(C(=O)O)n(C)c3c-2c(Cl)ccc13 [AZD5991] (first compound max 1 µM, 7x7, partner max 1 µM) | 0.2 | 0.151 | 0.252 | 0.282 | 0.805 | 0.163 | 0.265 | 0.397 | 0.278 | 0.113 | 1 | 0.189 | 0.194 | 0.126 | 0.213 | 0.117 | 0.239 | 0.158 | 0.244 | 0.154
